Each molecule was assayed on RSV ATCC VR-1540 (A2) (assay: microbe, parasite or virus in culture). Details: Hep2 cells, incubated for 4 days, CPE detected with XTT assay (absorbance 450 nm); read-out: EC50 (nmol/L) against RSV A2 strain.
Assay type: cell-based

Row | Molecule | EC50 [nmol/L]
1 | (18aS)-13-(azetidin-1-yl)-2-fluoro-7-(hydroxymethyl)-11-methyl-6,7,8,9,10,11,19,20,21,22-decahydro-18aH,24H-18,15-(metheno)pyrido[2,1-l]pyrimido[6,1-h][1,4,7,9,10,13]benzoxapentaazacyclohexadecin-24-one [Example 146] | 20.8
2 | (23aS)-18-(azetidin-1-yl)-8-fluoro-16-methyl-1,3,4,11,12,13,14,15,16,23a-decahydro-2H,6H-23,20-(metheno)pyrido[1,2-b]pyrimido[1,6-f][2,5,6,8,11]benzopentaazacyclopentadecin-6-one [Example 148] | 28.9

Same assay, conditions: human respiratory syncytial virus, HEp-2, 96 h; Hep2 cells, incubated for 4 days, CPE detected with XTT assay (absorbance 450 nm); read-out: EC50 (nmol/L) against RSV A2 strain

Row | Molecule | EC50 [nmol/L]
3 | [2H]C([2H])([2H])N1CCNC(=O)COc2ccc(F)cc2C(=O)N2CCCC[C@H]2c2cc3nc(C4CC4)cc1n3n2 [Example 94, (18aS)-13-cyclopropyl-2-fluoro-11-trideuteriomethyl-8,9,10,11,19,20,21,22-octahydro-18aH, 24H-18,15-(metheno)pyrido[2,1-l]pyrimido[6,1-h][1,4,7,9,10,13]benzoxapentaazacyclohexadecine-7,24(6H)-dione] | 0.207
4 | CN1CCN(C)c2cc(N3CC(N)C3)nc3cc(nn23)[C@@H]2CCCCN2C(=O)c2cc(F)ccc2OCC1=O [Example 8, (18aS)-13-(3-aminoazetidin-1-yl)-2-fluoro-8,11-dimethyl-8,9,10,11,19,20,21,22-octahydro-18aH,24H-18,15-(metheno)pyrido[2,1-l]pyrimido[6,1-h][1,4,7,9,10,13]benzoxapentaazacyclohexadecine-7,24(6H)-dione] | 6.3
5 | COc1cc2n3nc(cc3n1)[C@@H]1CCCCN1C(=O)c1cc(F)ccc1OCC(=O)NCCN2C [Example 20, (18aS)-2-fluoro-I 3-methoxy-11-methyl-8,9,10,11,19,20,21,22-octahydro-18aH,24H-18,15-(metheno)pyrido[2,1-l]pyrimido[6,1-h][1,4,7,9,10,13]benzoxapentaazacyclohexadecine-7,24(6H)-dione] | 1.26
6 | CN1CCOc2ccc(Cl)cc2C(=O)N2CCCC[C@H]2c2cc3nc(N4CC(N)C4)cc(n3n2)N(C)CC1 [Example 151, (18aS)-13-(3-aminoazetidin-1-yl)-2-chloro-8,11-dimethyl-6,7,8,9,10,11,19,20,21,22-decahydro-18aH,24H-18,15-(metheno)pyrido[2,1-l]pyrimido[6,1-h][1,4,7,9,10,13]benzoxapentaazacyclohexadecin-24-one] | 17
7 | CN1CCNC(=O)COc2ccc(F)cc2C(=O)N2CCCC[C@H]2c2cc3nc(N4CC(O)C4)cc1n3n2 [Example 3, (18aS)-2-fluoro-13-(3-hydroxyazetidin-1-yl)-J 1-methyl-8,9,10,11,19,20,21,22-octahydro-18aH,24H-18,15-(metheno)pyrido[2,1-l]pyrimido[6,1-h][1,4,7,9,10,13]benzoxapentaazacyclohexadecine-7,24(6H)-dione] | ~0.81
8 | Cc1ccc2c(c1)C(=O)N1CCCC[C@H]1c1cc3nc(N4CC(O)C4)cc(n3n1)N(C)CCN(S(C)(=O)=O)CCO2 [Example 179, (18aS)-13-(3-hydroxyazetidin-1-yl)-8-(methanesulfonyl)-2,11-dimethyl-6,7,8,9,10,11,19,20,21,22-decahydro-18aH,24H-18,15-(metheno)pyrido[2,1-l]pyrimido[6,1-h][1,4,7,9,10,13]benzoxapentaazacyclohexadecin-24-one] | 7.33
9 | Cc1c(N2CC(N)C2)nc2cc3nn2c1N(C)CCNC(=O)COc1ccc(F)cc1C(=O)N1CCCC[C@@H]31 [Example 61, (18aS)-13-(3-aminoazetidin-1-yl)-2-fluoro-11,12-dimethyl-8,9,10,11,19,20,21,22-octahydro-18aH,24H-18,15-(metheno)pyrido[2,1-l]pyrimido[6,1-h][1,4,7,9,10,13]benzoxapentaazacyclohexadecine-7,24(6H)-dione] | 1.77
10 | CCC1c2cc3nc(N4CC[C@H](N)C4)cc(n3n2)N(C)CCN(S(C)(=O)=O)CCOc2ccc(C)cc2C(=O)N1C (stereo partly drawn) [Example 195, (18S)-3-[(3S)-3-aminopyrrolidin-1-yl]-18-ethyl-8-(methanesulfonyl)-5,14,17-trimethyl-5,6,7,8,9,10,17,18-octahydro-16H-19,1-(metheno)pyrimido[6,1-h][1,4,7,9,11,13]benzoxapentaazacyclohexadecin-16-one] | 20.5
11 | Cc1ccc2c(c1)C(=O)N1CCCC[C@H]1c1cc3nc(C4CC4)cc(n3n1)N(C)CCNC(=O)CO2 [Example 102, (18aS)-13-cyclopropyl-2,11-dimethyl-8,9,10,11,19,20,21,22-octahydro-18aH,24H-18,15-(metheno)pyrido[2,1-l]pyrimido[6,1-h][1,4,7,9,10,13]benzoxapentaazacyclohexadecine-7,24(6H)-dione] | 0.239
12 | CC[C@H]1c2cc3nc(N4CC[C@H](N)C4)cc(n3n2)N(C)CCCOc2ccc(C)cc2C(=O)N1C [Example 238, (16S)-3-[(3S)-3-aminopyrrolidin-1-yl]-16-ethyl-5,12,15-trimethyl-5,6,7,8,15,16-hexahydro-14H-17,1-(metheno)pyrimido[6,1-f][1,5,7,8,11]benzoxatetraazacyclotetradecin-14-one] | 28
13 | CN1CCCCOc2ccc(Cl)cc2C(=O)N2CCCCC2c2cc3nc(N4CC[C@H](N)C4)cc1n3n2 (stereo partly drawn) [Example 254, (23aS)-18-[(3S)-3-aminopyrrolidin-1-yl]-8-chloro-16-methyl-1,3,4,13,14,15,16,23a-octahydro-2H,6H,12H-23,20-(metheno)pyrido[2,1-k]pyrimido[6,1-g][1,6,8,9,12]benzoxatetraazacyclopentadecin-6-one] | 3.28
14 | CC[C@H]1c2cc3nc(NCC(C)(C)N)c(C)c(n3n2)N(C)CCCCCOc2ccccc2C(=O)N1C [Example 234, (18S)-3-[(2-amino-2-methylpropyl)amino]-18-ethyl-4,5,17-trimethyl-5,6,7,8,9,10,17,18-octahydro-16H-19,1-(metheno)pyrimido[6,1-h][1,7,9,10,13]benzoxatetraazacyclohexadecin-16-one] | 6.77
15 | CN1CCOc2ccc(Cl)cc2C(=O)N2CCCC[C@H]2c2cc3nc(N4CC(CN)C4)cc(n3n2)N(C)CC1 [Example 163, (18aS)-13-[3-(aminomethyl)azetidin-1-yl]-2-chloro-8,11-dimethyl-6,7,8,9,10,11,19,20,21,22-decahydro-18aH,24H-18,15-(metheno)pyrido[2,1-l]pyrimido[6,1-h][1,4,7,9,10,13]benzoxapentaazacyclohexadecin-24-one] | ~10
16 | Cc1ccc2c(c1)C(=O)N1CCCC[C@H]1c1cc3nc(N4CCC4)cc(n3n1)N(C)CCN(S(N)(=O)=O)CCO2 [Example 178, (18aS)-13-(azetidin-1-yl)-2,11-dimethyl-24-oxo-6,7,10,11,19,20,21,22-octahydro-8aH,24H-18,15-(metheno)pyrido[2,1-l]pyrimido[6,1-h][1,4,7,9,10,13]benzoxapentaazacyclohexadecine-8(9H)-sulfonamide] | 4.48
17 | CCC1c2cc3nc(N4CCC(N)C4)cc(n3n2)N(C)CCCCCOc2ccc(C)cc2C(=O)N1C (stereo in doubt) [Example 230, (18S)-3-[(3S)-3-aminopyrrolidin-1-yl]-18-ethyl-5,14,17-trimethyl-5,6,7,8,9,10,17,18-octahydro-16H-19,1-(metheno)pyrimido[6,1-h][1,7,9,10,13]benzoxatetraazacyclohexadecin-16-one] | 11.8
18 | CN1CCOCCOc2ccc(Cl)cc2C(=O)N2CCCCC2c2cc3nc(N4CCC(N)C4)cc1n3n2 [Example 297, (18aS)-13-[(3S)-3-aminopyrrolidin-1-yl]-2-chloro-11-methyl-6,7,10,11,19,20,21,22-octahydro-9H,18aH,24H-18,15-(metheno)pyrido[2,1-l]pyrimido[6,1-h][1,4,7,9,10,13]benzodioxatetraazacyclohexadecin-24-one] | 8.74
19 | CN1CCCC(=O)NCC(C)(c2ccc(F)cc2)C(=O)N2CCCC[C@H]2c2cc3nc(N4CC(N)C4)cc1n3n2 (stereo partly drawn) [Example 371, (18aS)-3-(3-aminoazetidin-1-yl)-12-(4-fluorophenyl)-5,12-dimethyl-7,8,11,12,16,17,18,18a-octahydro-5H,15H-19,1-(metheno)pyrido[1,2-m]pyrimido[1,6-b][1,2,4,9,13]pentaazacyclopentadecine-9,13(6H,10H)-dione] | 12.8
20 | Cc1c(N2CCC(N)C2)nc2cc3nn2c1NCCCCOc1ccc(Cl)cc1C(=O)N1CCCCC31 [Example 283, (23aS)-18-[(3S)-3-aminopyrrolidin-1-yl]-8-chloro-17-methyl-1,3,4,13,14,15,16,23a-octahydro-2H,6H,12H-23,20-(metheno)pyrido[2,1-k]pyrimido[6,1-g][1,6,8,9,12]benzoxatetraazacyclopentadecin-6-one] | 6.28
21 | CN1CCOc2ccc(Cl)cc2C(=O)N2CCCC[C@H]2c2cc3nc(N4CC(F)C4)cc(n3n2)N(C)CC1 [Example 162, (18aS)-2-chloro-13-(3-fluoroazetidin-1-yl)-8,11-dimethyl-6,7,8,9,10,11,19,20,21,22-decahydro-18aH,24H-18,15-(metheno)pyrido[2,1-l]pyrimido[6,1-h][1,4,7,9,10,13]benzoxapentaazacyclohexadecin-24-one] | 4.51
22 | COc1ccc2c(c1)C(=O)N1CCCC[C@H]1c1cc3nc(N4CCC4)cc(n3n1)N(C)CCNC(=O)CO2 [Example 51, (18aS)-13-(azetidin-1-yl)-2-methoxy-11-methyl-8,9,10,11,19,20,21,22-octahydro-18aH,24H-18,15-(metheno)pyrido[2,1-l]pyrimido[6,1-h][1,4,7,9,10,13]benzoxapentaazacyclohexadecine-7,24(6H)-dione] | 1.21
23 | CC[C@H]1c2cc3nc(N4CC[C@H](N)C4)cc(n3n2)N(C)CCCCN(C)c2ccc(C)cc2C(=O)N1C [Example 218, (17S)-3-[(3S)-3-aminopyrrolidin-1-yl]-17-ethyl-5,10,13,16-tetramethyl-5,6,7,8,9,10,16,17-octahydro-15H-18,1-(metheno)pyrimido[6,1-g][1,6,8,9,12]benzopentaazacyclopentadecin-15-one] | 9.8

From patent US20230069963A1, “PYRAZOLO[1,5-A]PYRIMIDINE MACROCYCLIC COMPOUND” (priority 2018, published 2023)
